{"source": "PubChem BioAssay (NCI)", "assay_in_all_cases": "NCI anticancer screen, dose series, 48 h", "key": {"[1]": {"system": "786-0 renal"}, "[2]": {"system": "A498 renal"}, "[3]": {"system": "A549 NSCLC"}, "[4]": {"system": "ACHN renal"}, "[5]": {"system": "BT-549 breast"}, "[6]": {"system": "CAKI-1 renal"}, "[7]": {"system": "COLO 205 colon"}, "[8]": {"system": "DU-145 prostate"}, "[9]": {"system": "EKVX NSCLC"}, "[10]": {"system": "HCT-116 colon"}, "[11]": {"system": "HCT-15 colon"}, "[12]": {"system": "HL-60(TB) leukemia"}, "[13]": {"system": "HOP-62 NSCLC"}, "[14]": {"system": "HOP-92 NSCLC"}, "[15]": {"system": "HS 578T breast"}, "[16]": {"system": "HT29 colon"}, "[17]": {"system": "IGROV1 ovarian"}, "[18]": {"system": "K-562 leukemia"}, "[19]": {"system": "KM12 colon"}, "[20]": {"system": "LOX IMVI melanoma"}, "[21]": {"system": "M14 melanoma"}, "[22]": {"system": "MALME-3M melanoma"}, "[23]": {"system": "MCF7 breast"}, "[24]": {"system": "MDA-MB-231 breast"}, "[25]": {"system": "MDA-MB-435"}, "[26]": {"system": "MOLT-4 leukemia"}, "[27]": {"system": "NCI-H226 lung"}, "[28]": {"system": "NCI-H23 lung"}, "[29]": {"system": "NCI-H460 lung"}, "[30]": {"system": "NCI-H522 lung"}, "[31]": {"system": "OVCAR-4 ovarian"}, "[32]": {"system": "OVCAR-5 ovarian"}, "[33]": {"system": "OVCAR-8 ovarian"}, "[34]": {"system": "PC-3 prostate"}, "[35]": {"system": "RPMI-8226 leukemia"}, "[36]": {"system": "RXF 393 renal"}, "[37]": {"system": "SF-268 CNS"}, "[38]": {"system": "SF-295 CNS"}, "[39]": {"system": "SF-539 CNS"}, "[40]": {"system": "SK-MEL-2 melanoma"}, "[41]": {"system": "SK-MEL-28 melanoma"}, "[42]": {"system": "SK-MEL-5 melanoma"}, "[43]": {"system": "SK-OV-3 ovarian"}, "[44]": {"system": "SN12C renal"}, "[45]": {"system": "SNB-19 CNS"}, "[46]": {"system": "SNB-75 CNS"}, "[47]": {"system": "SW-620 colon"}, "[48]": {"system": "T-47D breast"}, "[49]": {"system": "TK-10 renal"}, "[50]": {"system": "U251 CNS"}, "[51]": {"system": "UACC-257 melanoma"}, "[52]": {"system": "UACC-62 melanoma"}, "[53]": {"system": "UO-31 renal"}, "[54]": {"system": "HCC-2998 colon"}, "[55]": {"system": "OVCAR-3 ovarian"}, "[56]": {"system": "SR leukemia"}}, "note": "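A five-concentration, 48-hour dose response in 96-well plates underlies each endpoint, interpolated linearly between surrounding concentrations. Definition used: TGI = concentration required for complete inhibition of growth.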"}
{"smiles": "COc1cc2c(/C=C3/C(=O)Nc4ccc(O)cc43)c(Cl)[nH]c2cc1C", "values": [{"measurement": "TGI", "setting": "[1]", "value": 16.7, "unit": "µM"}, {"measurement": "TGI", "setting": "[2]", "value": 24.6, "unit": "µM"}, {"measurement": "TGI", "setting": "[3]", "value": 32.9, "unit": "µM"}, {"measurement": "TGI", "setting": "[4]", "value": 1.64, "unit": "µM"}, {"measurement": "TGI", "setting": "[5]", "value": 3.84, "unit": "µM"}, {"measurement": "TGI", "setting": "[6]", "value": 3.19, "unit": "µM"}, {"measurement": "TGI", "setting": "[7]", "value": 0.894, "unit": "µM"}, {"measurement": "TGI", "setting": "[8]", "value": 7.55, "unit": "µM"}, {"measurement": "TGI", "setting": "[9]", "value": 26.8, "unit": "µM"}, {"measurement": "TGI", "setting": "[10]", "value": 6.61, "unit": "µM"}, {"measurement": "TGI", "setting": "[11]", "value": 1.17, "unit": "µM"}, {"measurement": "TGI", "setting": "[12]", "value": 4.08, "unit": "µM"}, {"measurement": "TGI", "setting": "[13]", "value": 4.55, "unit": "µM"}, {"measurement": "TGI", "setting": "[14]", "value": 42.6, "unit": "µM"}, {"measurement": "TGI", "setting": "[15]", "value": 28.5, "unit": "µM"}, {"measurement": "TGI", "setting": "[16]", "value": 5.42, "unit": "µM"}, {"measurement": "TGI", "setting": "[17]", "value": 20.5, "unit": "µM"}, {"measurement": "TGI", "setting": "[18]", "value": 16, "unit": "µM"}, {"measurement": "TGI", "setting": "[19]", "value": 5.35, "unit": "µM"}, {"measurement": "TGI", "setting": "[20]", "value": 11.9, "unit": "µM"}, {"measurement": "TGI", "setting": "[21]", "value": 2.02, "unit": "µM"}, {"measurement": "TGI", "setting": "[22]", "value": 1.38, "unit": "µM"}, {"measurement": "TGI", "setting": "[23]", "value": "> 100", "unit": "µM"}, {"measurement": "TGI", "setting": "[24]", "value": 4.25, "unit": "µM"}, {"measurement": "TGI", "setting": "[25]", "value": 0.0441, "unit": "µM"}, {"measurement": "TGI", "setting": "[26]", "value": 0.387, "unit": "µM"}, {"measurement": "TGI", "setting": "[27]", "value": 3.77, "unit": "µM"}, {"measurement": "TGI", "setting": "[28]", "value": 3.78, "unit": "µM"}, {"measurement": "TGI", "setting": "[29]", "value": 19.2, "unit": "µM"}, {"measurement": "TGI", "setting": "[30]", "value": 19.5, "unit": "µM"}, {"measurement": "TGI", "setting": "[31]", "value": 3.38, "unit": "µM"}, {"measurement": "TGI", "setting": "[32]", "value": 30.8, "unit": "µM"}, {"measurement": "TGI", "setting": "[33]", "value": 7.77, "unit": "µM"}, {"measurement": "TGI", "setting": "[34]", "value": 22.2, "unit": "µM"}, {"measurement": "TGI", "setting": "[35]", "value": 1.34, "unit": "µM"}, {"measurement": "TGI", "setting": "[36]", "value": 30.5, "unit": "µM"}, {"measurement": "TGI", "setting": "[37]", "value": 26.4, "unit": "µM"}, {"measurement": "TGI", "setting": "[38]", "value": 13.5, "unit": "µM"}, {"measurement": "TGI", "setting": "[39]", "value": 0.185, "unit": "µM"}, {"measurement": "TGI", "setting": "[40]", "value": 29.2, "unit": "µM"}, {"measurement": "TGI", "setting": "[41]", "value": 0.0526, "unit": "µM"}, {"measurement": "TGI", "setting": "[42]", "value": 3.29, "unit": "µM"}, {"measurement": "TGI", "setting": "[43]", "value": 2.48, "unit": "µM"}, {"measurement": "TGI", "setting": "[44]", "value": 3.06, "unit": "µM"}, {"measurement": "TGI", "setting": "[45]", "value": 22.3, "unit": "µM"}, {"measurement": "TGI", "setting": "[46]", "value": 20, "unit": "µM"}, {"measurement": "TGI", "setting": "[47]", "value": 20, "unit": "µM"}, {"measurement": "TGI", "setting": "[48]", "value": 7.85, "unit": "µM"}, {"measurement": "TGI", "setting": "[49]", "value": 26.1, "unit": "µM"}, {"measurement": "TGI", "setting": "[50]", "value": 2.99, "unit": "µM"}, {"measurement": "TGI", "setting": "[51]", "value": 21.9, "unit": "µM"}, {"measurement": "TGI", "setting": "[52]", "value": 3.08, "unit": "µM"}, {"measurement": "TGI", "setting": "[53]", "value": 21.1, "unit": "µM"}]}
{"smiles": "O=c1cc(-c2ccccc2)[nH]c2ccc(N3CCCCC3)cc12", "values": [{"measurement": "TGI", "setting": "[1]", "value": 43.1, "unit": "µM"}, {"measurement": "TGI", "setting": "[4]", "value": "> 100", "unit": "µM"}, {"measurement": "TGI", "setting": "[5]", "value": "> 100", "unit": "µM"}, {"measurement": "TGI", "setting": "[6]", "value": "> 100", "unit": "µM"}, {"measurement": "TGI", "setting": "[7]", "value": "> 100", "unit": "µM"}, {"measurement": "TGI", "setting": "[8]", "value": "> 30.3", "unit": "µM"}, {"measurement": "TGI", "setting": "[9]", "value": "> 100", "unit": "µM"}, {"measurement": "TGI", "setting": "[54]", "value": "> 22.5", "unit": "µM"}, {"measurement": "TGI", "setting": "[11]", "value": "> 100", "unit": "µM"}, {"measurement": "TGI", "setting": "[12]", "value": "< 0.028", "unit": "µM"}, {"measurement": "TGI", "setting": "[13]", "value": 47.4, "unit": "µM"}, {"measurement": "TGI", "setting": "[14]", "value": 53.6, "unit": "µM"}, {"measurement": "TGI", "setting": "[15]", "value": "> 100", "unit": "µM"}, {"measurement": "TGI", "setting": "[17]", "value": "> 100", "unit": "µM"}, {"measurement": "TGI", "setting": "[18]", "value": "> 100", "unit": "µM"}, {"measurement": "TGI", "setting": "[19]", "value": 0.0909, "unit": "µM"}, {"measurement": "TGI", "setting": "[20]", "value": "> 100", "unit": "µM"}, {"measurement": "TGI", "setting": "[21]", "value": "> 100", "unit": "µM"}, {"measurement": "TGI", "setting": "[22]", "value": "> 100", "unit": "µM"}, {"measurement": "TGI", "setting": "[23]", "value": "> 67.9", "unit": "µM"}, {"measurement": "TGI", "setting": "[24]", "value": "> 100", "unit": "µM"}, {"measurement": "TGI", "setting": "[26]", "value": "> 100", "unit": "µM"}, {"measurement": "TGI", "setting": "[27]", "value": 0.0706, "unit": "µM"}, {"measurement": "TGI", "setting": "[28]", "value": 6.86, "unit": "µM"}, {"measurement": "TGI", "setting": "[29]", "value": "> 100", "unit": "µM"}, {"measurement": "TGI", "setting": "[30]", "value": "> 100", "unit": "µM"}, {"measurement": "TGI", "setting": "[55]", "value": 2.89, "unit": "µM"}, {"measurement": "TGI", "setting": "[31]", "value": "> 100", "unit": "µM"}, {"measurement": "TGI", "setting": "[32]", "value": "> 100", "unit": "µM"}, {"measurement": "TGI", "setting": "[33]", "value": "> 44.9", "unit": "µM"}, {"measurement": "TGI", "setting": "[34]", "value": "> 100", "unit": "µM"}, {"measurement": "TGI", "setting": "[35]", "value": "> 100", "unit": "µM"}, {"measurement": "TGI", "setting": "[37]", "value": "> 53.2", "unit": "µM"}, {"measurement": "TGI", "setting": "[38]", "value": 0.0474, "unit": "µM"}, {"measurement": "TGI", "setting": "[39]", "value": 0.549, "unit": "µM"}, {"measurement": "TGI", "setting": "[40]", "value": "> 100", "unit": "µM"}, {"measurement": "TGI", "setting": "[41]", "value": "> 100", "unit": "µM"}, {"measurement": "TGI", "setting": "[42]", "value": 4.2, "unit": "µM"}, {"measurement": "TGI", "setting": "[43]", "value": "> 59.7", "unit": "µM"}, {"measurement": "TGI", "setting": "[44]", "value": "> 100", "unit": "µM"}, {"measurement": "TGI", "setting": "[45]", "value": "> 100", "unit": "µM"}, {"measurement": "TGI", "setting": "[56]", "value": "> 100", "unit": "µM"}, {"measurement": "TGI", "setting": "[47]", "value": "> 100", "unit": "µM"}, {"measurement": "TGI", "setting": "[48]", "value": "> 100", "unit": "µM"}, {"measurement": "TGI", "setting": "[49]", "value": "> 100", "unit": "µM"}, {"measurement": "TGI", "setting": "[50]", "value": "> 45.9", "unit": "µM"}, {"measurement": "TGI", "setting": "[51]", "value": "> 100", "unit": "µM"}, {"measurement": "TGI", "setting": "[52]", "value": "> 100", "unit": "µM"}]}
